Measurements from patent publication US6800775B1, “Metal complexes of tripodal ligands” (Ciba Specialty Chemicals Corporation, priority 1999, dated 2004).

Key:
[1] = DTI (dye transfer inhibition) test, white cotton in wash liquor with dissolved test dye; details: complex 20 μmol/l wash liquor, 8.6 mmol/l H2O2, 40° C., 30 min; for DTI effect a(%) Dye 1: Direct Brown 172 10 mg/l of the 250% formulation; for DTI effect a(%) Dye 2: Reactive Blue 238 6 mg/l of the 100% formulation
Procedure: The catalysts were tested for DTI activity. The DTI (dye transfer inhibition) effect a is defined as the following percentage:
a=([Y(E)−Y(A)]/[Y(W)−Y(A)])*100
where Y(W), Y(A) and Y(E) are the CIE lightnesses of the white material, of the material treated without added catalyst and of the material treated with added catalyst, in that order. a=0 characterizes a product of nil utility, the inclusion of which in the wash liquor does nothing to impede dye transfer. a=100%, by contrast, defines a perfect catalyst, which completely suppresses the tainting of the white material.
The test data are determined using the following testing system: 7.5 g of white cotton are treated in 80 ml of wash liquor. This liquor contains the standard detergent ECE phosphate-free (456 IEC) EMPA, Switzerland, in a concentration of 7.5g/l, 8.6 mmol/l H2O2, and a solution of the test dye. The washing process is carried out in a pot in a LINITEST apparatus at 40° C. for 30 min. Commercially available Direct Brown 172 (dye 1) at 10 mg/l of the 250% formulation or Reactive Blue 238 (dye 2) at 6 mg/l of the 100% formulation were used as test dyes. The reflectants spectra of the samples were measured with a SPECTRAFLASH 2000 and transformed into D65/10 lightnesses by the CIE standard procedure.
The manganese complexes are synthesized either as described in Example 13 or in situ by adding the corresponding manganese(III) salt in ethanolic solution. The complexes are always used at 20 μmol/l wash liquor. It is evident from the table that the recited catalysts are very effective DTI catalysts. […]

[2] = Bleach test, tea stain on cotton fabric; details: 100 μmol/l ligand; 8.6 mmol/l hydrogen peroxide; 40° C., 30 minutes; H2O2 only gives 18
Procedure: The bleach tests are carried out as follows: 7.5 g of white cotton fabric and 2.5 g of a tea stain on cotton fabric are treated in 80 ml of wash liquor. This liquor contains the standard laundry detergent ECE phosphate-free (456 IEC) EMPA, Switzerland in a concentration of 7.5 g/l, hydrogen peroxides in a concentration of 8.6 mmol/l and optionally 100 μmol/l of one of the ligands according to the invention. The washing process takes place in a steel pot in a LINITEST apparatus at 40° C. for 30 minutes. The bleaching results are evaluated using the increase in lightness DY (lightness difference as per CIE) of the stain due to the treatment.

Row | Compound | DTI effect a(%) Dye 1 [1] | DTI effect a(%) Dye 2 [1] | DY with H2O2 and ligand (increase in lightness of the stain) [2]
1 | C[N+](C)(C)c1ccc(O)c(C=NCCN(CCN=Cc2cc([N+](C)(C)C)ccc2O)CC/N=C/c2cc([N+](C)(C)C)ccc2O)c1.[Br-].[Br-].[Br-] [Example 11, N,N′,N″-Tris[5-trimethylammoniosalicylideneaminoethyl]amine tribromide] | 86% | 94% | 
2 | COc1ccc(/C=N\CCN(CC/N=C/c2ccc(OC)cc2O)CC/N=C/c2ccc(OC)cc2O)c(O)c1 [Example 4, N,N′,N″-Tris[4-methoxysalicylideneaminoethyl]amine] | 83% | 67% | 
3 | CCN(C)c1ccc(C=NCCN(CCN=Cc2ccc(N(C)CC)cc2O)CC/N=C/c2ccc(N(C)CC)cc2O)c(O)c1 [Example 8, N,N′,N″-Tris[(4-N-methyl-N-ethylamino)salicylideneaminoethyl]amine] | 85% | 81% | 22
4 | CCN(CC)c1ccc(C=NCCN(CCN=Cc2ccc(N(CC)CC)cc2O)CC/N=C/c2ccc(N(CC)CC)cc2O)c(O)c1 [Example 2, N,N′,N″-Tris[4-N-diethylaminosalicylideneaminoethyl]amine] | 78% | 73% | 21
5 | Cc1ccc(C=NCCN(CCN=Cc2ccc(C)cc2O)CC/N=C/c2ccc(C)cc2O)c(O)c1 [Example 9, N,N′,N″-Tris[4-methylsalicylideneaminoethyl]amine] | 87% | 94% | 
6 | Oc1ccccc1/C=N\CCN(CC/N=C/c1ccccc1O)CC/N=C/c1ccccc1O [Example 1, N,N′,N″-Tris[salicylideneaminoethyl]amine] | 91% | 96% | 
7 | CC(C)N(C)c1ccc(C=NCCN(CCN=Cc2ccc(N(C)C(C)C)cc2O)CC/N=C/c2ccc(N(C)C(C)C)cc2O)c(O)c1 [Example 7, N,N′,N″-Tris[(4-N-methyl-N-isopropylamino)salicylideneaminoethyl]amine] | 84% | 83% | 21
8 | O=S(=O)([O-])c1ccc(O)c(C=NCCN(CCN=Cc2cc(S(=O)(=O)[O-])ccc2O)CC/N=C/c2cc(S(=O)(=O)[O-])ccc2O)c1.[Na+].[Na+].[Na+] [Example 12, N,N′,N″-Tris[5-sulfonatosalicylideneaminoethyl]amine, trisodium salt] | 80% | 99% | 
9 | O=[N+]([O-])c1ccc(O)c(C=NCCN(CCN=Cc2cc([N+](=O)[O-])ccc2O)CC/N=C/c2cc([N+](=O)[O-])ccc2O)c1 [Example 6, N,N′, N″-Tris[5-nitrosalicylideneaminoethyl]amine] | 70% | 80% | 
10 | Oc1ccc(/C=N\CCN(CC/N=C/c2ccc(O)cc2O)CC/N=C/c2ccc(O)cc2O)c(O)c1 [Example 5, N,N′,N″-Tris[4-hydroxysalicylideneaminoethyl]amine] | 78% | 27% | 
11 | CN(C)c1ccc(/C=N\CCN(CC/N=C/c2ccc(N(C)C)cc2O)CC/N=C/c2ccc(N(C)C)cc2O)c(O)c1 [Example 3, N,N′,N″-Tris[4-N-dimethylaminosalicylideneaminoethyl]amine] | 85% | 80% | 22
12 | C[N+](C)(C)c1ccc(C=NCCN(CCN=Cc2ccc([N+](C)(C)C)cc2O)CC/N=C/c2ccc([N+](C)(C)C)cc2O)c(O)c1.[Br-].[Br-].[Br-] [Example 10, N,N′, N″-Tris[4-trimethylammoniosalicylideneaminoethyl]amine tribromide] | 90% | 96% | 
